This is an account of results in PubChem BioAssay AID179 (DTP/NCI, 2004).

Values joined by “and” are separate entries in the source; they are usually repeats but may differ in a detail not shown here. Identical values can stand only once. Active and inactive are the calls of the source.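 The calls were made as follows: active = compounds giving half or more protection of infected cells from virus-caused growth loss, again on retest; inactive = the rest.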 Some results are limits rather than exact numbers.

The assay has as its system CEM cells HIV-1 protection, formazan growth assay. Put plainly: NCI AIDS Antiviral Assay. As to conditions: for IC50: measured here: growth of uninfected CEM cells. The gist of the method: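 Soluble formazan readout of cell growth; CEM cells ± HIV-1; 5 drug concs. ≥50% protection → retest; ≥50% again = moderately active; reproducible 100% = confirmed active.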

As for `CCOC(=O)CC(c1ccccc1)C(C)(C(=O)OCC)C(=O)OCC` (stereo not given), the result was inactive.

As to `O=C1c2ccccc2-c2nc3ncccc3cc21`, the EC50 (in general, the concentration needed to bring the measured effect to its halfway point) is > 200 µM and the IC50 (commonly the concentration that inhibits the measured activity by half) was found to be 33.9 µM.

Take `Cc1cc(N(CCC#N)CCC#N)ccc1/C=C(\NC(=O)/C=C/c1ccccc1)C(=O)Nc1ccc(Cl)cc1`: the EC50 was > 13.5 µM and the IC50 was > 13.5 µM.

Consider `Cc1cc(NS(=O)(=O)c2ccc(Nc3c4ccccc4nc4c(C(=O)N5CCN(CCO)CC5)cccc34)cc2)no1`, for which the EC50 is > 38 µM and the IC50 is > 38 µM.

Take `CN(C)Cc1cc(C(=O)/C=C/c2ccc(Cl)cc2)cc(CN(C)C)c1O`: the EC50 was > 200 µM and the IC50 came out at 9.12 µM.

In the case of `Cc1c(COC(=O)NC(C)C)c(COC(=O)NC(C)C)c2n1CS(=O)C2` (stereo not given), the EC50 was > 200 µM and the IC50 amounted to 166 µM.

Regarding `O=C(N/C(=C\c1cccc([N+](=O)[O-])c1)c1nc2ccc([N+](=O)[O-])cc2[nH]1)c1ccccc1`, the outcome was inactive.

With `CSC(=S)c1ccc(C(=S)SC)cc1`, the outcome was inactive.

`COC(=O)c1cc(C(c2cc(C)c(O)c(C(=O)OC)c2)c2cc(C)c(O)c(C(=O)OC)c2)cc(C)c1O`: the result was inactive.

For `COCCOCN(C(=O)C1=CCC2(CC1)OCCO2)c1ccccc1I`, the EC50 was > 200 µM and the IC50 was > 200 µM.

With `NC1CC(n2ccc(=O)[nH]c2=O)OC1C(O)CO` (stereo not given), the EC50 is > 100 µM and the half-inhibitory concentration (IC50) is > 100 µM.

As to `Cc1c2ccccc2c(CSCC(N)C(=O)O)c2ccccc12` (stereo not given), the EC50 is > 200 µM and the IC50 is > 200 µM.

Consider `Cc1cc(=O)cc2sc3cc(Cl)ccc3nc1-2`, for which the EC50 is > 10.5 µM and the IC50 was > 10.5 µM.

With `C[N+](C)=c1ccc2nc3c(ccc4ccccc43)oc-2c1`, the EC50 is > 60.3 µM and the IC50 came out at 8.32 µM.

In the case of `COc1cc(-c2oc3c(OC)c(OC)cc(O)c3c(=O)c2OC)ccc1O`, the 50% effective concentration (EC50) is > 100 µM; the IC50 was 12.6 µM and 3.55 µM.

Regarding `COCc1c(C(=O)NCCO)[n+](=O)c2ccccc2n1[O-]`, the EC50 was > 87.1 µM and the IC50 was > 87.1 µM.

With `COc1cc(C(=O)O)c(C(=O)c2ccc([N+](=O)[O-])cc2)cc1OC`, the EC50 was > 200 µM and the IC50 was > 200 µM.

With `CCCCCC(C/C=N/N(C)C)C(O)(C(F)(F)F)C(F)(F)F` (stereo not given), the EC50 is > 200 µM and the IC50 was 14.5 µM.

With `CC[C@@H](C)[C@H]([C@H](CC(=O)N1CCC[C@@H]1[C@@H](OC)[C@H](C)C(=O)N[C@H](Cc1ccccc1)c1nccs1)OC)N(C)C(=O)[C@H](NC(=O)[C@@H](C(C)C)N(C)C)C(C)C`, the EC50 is > 316 µM and the IC50 came to 0.1 µM.

`COc1cc(/C=N/NC2=NCCN2)ccc1O`: the EC50 is > 200 µM and the IC50 was > 200 µM.

`CN(C)CCCn1c(-c2ccc(Br)cc2)csc1=Nc1ccccc1`: the EC50 is > 200 µM and the IC50 was determined as 9.77 µM.

Consider `O=C1CC2C=CC(O)C(C1)C2` (stereo not given), for which the EC50 is > 200 µM and the IC50 was > 200 µM.

For `CC1(C)O[C@@H]([C@H](O)CO)[C@H](O)[C@@H](C2SCCCS2)O1`, the EC50 is > 200 µM and the IC50 is > 200 µM.

Turning to `O=C(O)/C=C/c1ccc([N+](=O)[O-])cc1`, the EC50 is > 97.7 µM and the IC50 is > 97.7 µM.

`NC(CCSCc1ccccc1)P(=O)(O)O` (stereo not given): the EC50 is > 200 µM and the IC50 is > 200 µM.

Turning to `COC(=O)c1cc(Cl)ccc1NC(=O)C1CCCCC1`, the outcome was inactive.

For the molecule `C[C@H](c1ccccc1)N1C(=O)[C@@H](O)[C@H]1[C@H](CO)OCc1ccccc1`, the EC50 is > 200 µM and the IC50 is > 200 µM.

Consider `NC(=O)c1csc(C2OC(COP(=O)(O)CP(=O)(O)OCC3OC(n4cnc5c(N)ncnc54)C(O)C3O)C(O)C2O)n1` (stereo not given), for which the EC50 was > 151 µM and the IC50 turned out to be 91.2 µM.

Regarding `Cc1cc[n+](C2=C([O-])C3=C(C(=O)C2=O)C2c4ccccc4C3c3ccccc32)c(C)c1`, the EC50 was > 33.9 µM and the IC50 came out at 31.6 µM.

Consider `O=C(Nc1ccc(C(=O)Nc2ccc(C3=NCCCN3)cc2)cc1)Nc1ccc(C2=NCCCN2)cc1`, for which the EC50 was > 200 µM and the IC50 is 17 µM.

As to `COc1ccc(OC)c2c1C1CCC(=O)N1CN2C(C)=O` (stereo not given), the result was inactive.

Regarding `O=C(O)CCC(NC(=O)c1ccc(Nc2nc3ccccc3nc2-c2cccs2)cc1)C(=O)O` (stereo not given), the EC50 was > 525 µM and the 50% inhibitory concentration (IC50) came to 457 µM.

For the molecule `COC1(C)CC2N(C(=O)c3ccccc3)N=C(c3ccccc3)CC2(C)O1` (stereo not given), the EC50 is > 100 µM and the IC50 is > 100 µM.

In the case of `CCOC(=O)c1cc(-c2ccc3ccccc3n2)c(O)c2cc3ccccc3nc12`, the EC50 was > 200 µM and the IC50 is > 200 µM.

In the case of `CN(C)CCNCCCNc1c2ccccc2nc2cccc([N+](=O)[O-])c12`, the EC50 was > 2 µM and the IC50 was found to be 0.0129 µM.

`COc1ccccc1C(=O)c1c(NCc2ccccc2)c(=O)c1=O`: the EC50 is > 200 µM and the IC50 amounted to 93.3 µM.

For the molecule `O=C(O)COc1c2occc2cc2ccc(=O)oc12`, the EC50 is > 347 µM and the IC50 was > 347 µM.

For the molecule `CC(C)(C)CC1=COC(C=O)(CC(C)(C)C)CC1` (stereo not given), the EC50 was > 102 µM and the IC50 was > 102 µM.

Regarding `CC(=O)N1N=C(c2c(O)ccc3ccccc23)CC1c1ccc(Cl)cc1` (stereo not given), the EC50 is > 200 µM and the half-maximal inhibitory concentration (IC50) was 25.1 µM.

Consider `Cc1ccc(NCC(=O)N2CC(=O)Nc3ccccc32)cc1`, for which the EC50 is > 123 µM and the IC50 is > 123 µM.

With `CCOc1ccc(NC(=O)C(=O)C(/C(=N/N)C(=O)OC)c2nc3ccc([N+](=O)[O-])cc3[nH]c2=O)cc1` (stereo not given), the EC50 is > 14.5 µM and the IC50 was > 14.5 µM.

For the molecule `Cc1ccccc1C1=C/C(=C(\SS/C(C(=O)c2ccc(OCC(=O)O)c(Cl)c2Cl)=C2\C=C(c3ccccc3C)SS2)C(=O)c2ccc(OCC(=O)O)c(Cl)c2Cl)SS1`, the EC50 was > 26.9 µM and the IC50 was > 26.9 µM.

On to `Cc1c(/C=C2\CC/C(=C\c3[nH]c(C(=O)OC(C)(C)C)c(C)c3C)C2=O)[nH]c(C(=O)OC(C)(C)C)c1C`, for which the outcome was inactive.

As to `C=C(C)C1CC2=C(O1)C(=O)c1cccc(O)c1C2=O` (stereo not given), the EC50 was > 2 µM and the IC50 was found to be 0.468 µM.

As to `O=C(CCc1ccccc1)ON1C(=S)NC(c2ccccc2)(c2ccccc2)C1=S`, the EC50 is > 200 µM and the IC50 amounted to 33.1 µM.

As to `CCC12CCCN(Cc3ccccc3)C1c1c(n(C)c3ccccc13)[C@H](C(=O)OC)C2` (stereo not given in full), the EC50 is > 12.6 µM and the IC50 was > 12.6 µM.

Consider `CCC1C(c2ccccc2O)c2cc3c(cc2OC1N1CCOCC1)OCO3` (stereo not given), for which the EC50 is > 200 µM and the IC50 came to 22.4 µM.

With `[C-]#[O+].[C-]#[O+].[C-]#[O+].[Cr].c1ccc([PH+](CC[As](c2ccccc2)c2ccccc2)CC[As](c2ccccc2)c2ccccc2)cc1`, the outcome was inactive.

Consider `O=C1NCCN1/N=C/c1ccc([N+](=O)[O-])o1`, for which the EC50 is > 200 µM and the IC50 worked out at 120 µM.

As to `CCOC(=O)NC(=O)c1cn(CCCOC(=O)CCCCCCCCC(=O)OCCCn2cc(C(=O)NC(=O)OCC)c(=O)[nH]c2=O)c(=O)[nH]c1=O`, the outcome was inactive.

On to `C=CCn1cnc2c(=O)[nH]c(Nc3ccccc3)nc21`, for which the EC50 is > 151 µM and the IC50 was > 151 µM.

Take `CNC(=O)N(CCC#N)CCCN(C(=O)N(C)C)c1ccccc1`: the EC50 was > 200 µM and the IC50 is > 200 µM.

Consider `O=S1(=O)[C@H](c2ccccc2)c2c(-c3ccccc3)sc(-c3ccccc3)c2[C@@H]1c1ccccc1`, for which the outcome was inactive.

On to `CC1N=C(c2ccccc2)c2cc(Cl)ccc2NC1=O` (stereo not given), for which the EC50 was > 18.2 µM and the IC50 was > 18.2 µM.

`COc1ccc(C(=O)N/N=C/c2c(C)n(C)n(-c3ccccc3)c2=O)cc1`: the EC50 is > 200 µM and the IC50 was > 200 µM.

Take `CCOc1cc2c(cc1O)/C(=N\O)C[C@@H]1[C@@H]2CC[C@]2(C)[C@@H](O)CC[C@@H]12`: the EC50 was > 200 µM and the IC50 was determined as 0.0631 µM.

Take `O=C1[C@@H]2C3SC(c4cc5ccccc5cc43)[C@@H]2C(=O)N1c1ccccc1`: the EC50 was > 72.4 µM and the IC50 is > 72.4 µM.

As to `Cc1nc2c(nc1C)C(=O)C(N(C)C)=CC2=O`, the outcome was inactive.

For `Cc1cc(=O)[nH]c(-n2[nH]c3c(c2=O)CCCC3)n1`, the EC50 is > 200 µM and the IC50 worked out at 24.5 µM.

For the molecule `O=C(O)Cn1ccc(=O)c2ccc([N+](=O)[O-])cc21`, the EC50 is > 200 µM and the IC50 is > 200 µM.

`O=C(Nc1nc2ccccc2s1)c1cc([N+](=O)[O-])ccc1Cl`: the EC50 is > 200 µM and the IC50 came out at 3.8 µM.

On to `COc1cc(N/N=C/C#N)cc(OC)c1OC`, for which the EC50 is > 45.7 µM and the IC50 amounted to 2.24 µM.

In the case of `CN(C)c1ncnc2c1ncn2C1OC(CO)C2NP(=O)(N(CCCl)CCCl)OC21` (stereo not given), the EC50 was > 200 µM and the IC50 was > 200 µM.

For the molecule `N/C(=N\N=C(/N)C(F)(F)F)C(F)(F)F`, the EC50 was > 200 µM and the 50% inhibitory concentration (IC50) was > 200 µM.

In the case of `O=C(N/C(=C\c1ccc([N+](=O)[O-])cc1)c1nc2ccc(Cl)cc2[nH]1)c1ccccc1`, the outcome was inactive.

As to `CC1Sc2ccccc2-c2[nH]c3ccccc3c21` (stereo not given), the EC50 is > 200 µM and the IC50 was determined as 10.2 µM.

For the molecule `Cc1cc(=O)[nH]c(N/N=C/c2ccc(Cl)c(Cl)c2)n1`, the EC50 is > 24.5 µM and the IC50 worked out at 12.3 µM.

For the molecule `CC1(C)C(=O)C(C)(C)C1=NNC(N)=S`, the EC50 was > 417 µM and the IC50 worked out at 263 µM.

With `Cc1ccc(Oc2cc(C)ccc2P(=O)(O)O)cc1`, the EC50 was > 200 µM and the IC50 was determined as 138 µM.

For `C[C@H]1[C@H](C)Oc2c3c(c4c(CO)cc(=O)oc4c2[C@H]1O)OC(C)(C)C=C3`, the EC50 was > 200 µM and the IC50 is > 200 µM.

For the molecule `COC(=O)C1OS(=O)(=O)OC1C(=O)OC` (stereo not given), the EC50 was > 200 µM and the IC50 was > 200 µM.
